In ChEMBL document CHEMBL5634083, “Targeting polyketide synthase 13 for the treatment of tuberculosis” (Eur J Med Chem, 2023):
Values after ≈ are worked out from the molar mass of the structure shown.

Assays:
Assay type in all cases: functional
[1] = system: Mycobacterium tuberculosis; assay: Antimycobacterial activity against multi-drug resistant Mycobacterium tuberculosis
[2] = system: Mycobacterium tuberculosis; assay: Antibacterial activity against fluoroquinolone-resistant Mycobacterium tuberculosis H37Rv assessed as reduction in bacterial growth measured after 16 to 18 hrs by serial dilution method; details: time 16-18 hrs
[3] = system: Mycobacterium tuberculosis; assay: Antitubercular activity against multi-drug resistant Mycobacterium tuberculosis assessed as reduction in microbial growth measured after 3 weeks by resazurin microplate reader assay; details: 504 h

For `CCOC(=O)c1c(NC(=O)c2c(F)c(F)c(F)c(F)c2F)sc2c1CCN(CC)C2`, the MIC [1] was 0.2 µM (≈ 0.0897 µg/mL).

Work on `CC(=O)c1c(C)n(-c2ccc(N(C)C)cc2)c2ccc(O)c(CN3CCCC3)c12` yielded an MIC90 [2] of 0.244 µM (≈ 0.0955 µg/mL).

`O=C(c1ccccc1)c1cc(Cl)ccc1OCc1nc(-c2ccc(C(F)(F)F)cc2)no1` was tested, and the MIC [3] was 16 µg/mL.
